Measurements published in ChEMBL document CHEMBL1124966, “Cholecystokinin-A receptor ligands based on the kappa-opioid agonist tifluadom” (J Med Chem, 1990).

Each compound was assayed against Opioid receptor (Rattus norvegicus, UniProt P33533+P34975+P33535) (assay: Displacement of [3H]dihydromorphine (DHM) from rat brain Opioid receptors).
For `CN1c2ccccc2C(c2ccccc2F)=NCC1CNC(=O)c1ccc(Cl)cc1` (centres undefined), the IC50 was 0.0005 µM.
In the case of `CN1c2ccccc2C(c2ccccc2F)=NCC1CNC(=O)c1cccnc1` (centres undefined), the IC50 is reported as 0.45 µM.
`CN1c2ccccc2C(c2ccccc2F)NCC1CNC(=O)c1ccsc1` (centres undefined) was tested, and the IC50 was 0.03 µM.
Work on `CC(=O)NCSCC(=O)NCC1CN=C(c2ccccc2F)c2ccccc2N1C` (centres undefined) yielded an IC50 of 0.12 µM.
`CN1c2ccccc2C(c2ccccc2F)=NCC1CNC(=O)Cc1cccc2sccc12` (centres undefined) was tested, and the IC50 was 0.003 µM.
With `COC(=O)CC(NCC1CN=C(c2ccccc2F)c2ccccc2N1C)c1ccccc1` (centres undefined) the IC50 was 0.018 µM.
`CN1c2ccccc2C(c2ccccc2F)=NCC1CNC(=O)C(N)Cc1c[nH]c2ccccc12` (centres undefined) showed an IC50 of 0.04 µM.
For `O=C(NCC1N=C(c2ccccc2F)c2ccccc2NC1=O)OCc1ccccc1` (centres undefined), the IC50 was 12 µM.
`CN1c2ccccc2C(c2ccccc2F)=NCC1CNC(=O)C(O)c1ccccc1` (centres undefined) showed an IC50 of 0.007 µM.
For `CN1c2ccccc2C(c2ccccc2F)=NCC1CNC(=O)Cc1c[nH]c2ccccc12` (centres undefined), the IC50 was 0.022 µM.
`CN1c2ccccc2C(c2ccccc2F)=NCC1CNC(=O)c1cc2ccccc2[nH]1` (centres undefined) gave an IC50 of 0.0003 µM.

These compounds were tested against T1, Cholecystokinin receptor type A (Rattus norvegicus, UniProt P30551) (assay: Inhibition of binding of [125I]CCK-8 to Cholecystokinin type A receptor in rat pancreas).
T1 sequence (P30551 whole entry): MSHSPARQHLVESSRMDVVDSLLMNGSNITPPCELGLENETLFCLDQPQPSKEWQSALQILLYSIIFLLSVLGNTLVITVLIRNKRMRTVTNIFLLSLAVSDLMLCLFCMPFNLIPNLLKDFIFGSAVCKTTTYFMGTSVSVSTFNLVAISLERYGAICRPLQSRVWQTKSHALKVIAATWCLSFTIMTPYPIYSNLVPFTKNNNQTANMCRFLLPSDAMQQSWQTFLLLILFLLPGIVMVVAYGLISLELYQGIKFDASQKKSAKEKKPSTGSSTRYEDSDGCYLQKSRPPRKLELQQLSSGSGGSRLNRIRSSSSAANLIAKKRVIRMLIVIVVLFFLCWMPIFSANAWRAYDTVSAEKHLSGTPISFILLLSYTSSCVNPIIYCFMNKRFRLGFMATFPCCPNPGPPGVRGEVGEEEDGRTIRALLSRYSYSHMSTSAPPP
Work on `NCC1N=C(c2ccccc2F)c2ccccc2NC1=O` (centres undefined) yielded an IC50 of over 100 µM.
In the case of `O=C(NCC1CNc2ccccc2C(c2ccccc2F)=N1)OCc1ccccc1` (centres undefined), the IC50 is reported as 28 µM.
With `O=C(NCC1N=C(c2ccccc2F)c2ccccc2NC1=O)c1ccsc1` (centres undefined) the IC50 was 22 µM.
In the case of `O=C(NCC1CNc2ccccc2C(c2ccccc2F)=N1)c1cc2ccccc2[nH]1` (centres undefined), the IC50 is reported as 4 µM.
`COC(=O)CC(NCC1CN=C(c2ccccc2F)c2ccccc2N1C)c1ccccc1` (centres undefined) showed an IC50 of 0.018 µM.
`Cc1ccc(C(=O)NC[C@@H]2CN=C(c3ccc(F)cc3)c3ccc(C)cc3N2C)cc1` gave an IC50 of 0.029 µM.
`O=C(NCC1N=C(c2ccccc2F)c2ccccc2NC1=O)OCc1ccccc1` (centres undefined) showed an IC50 of 22 µM.
Compound `CCN(CC)c1ccc(NCC2CN=C(c3ccccc3F)c3ccccc3N2C)cc1C(F)(F)F` (centres undefined) has an IC50 of 100 µM.
Work on `CN1c2ccccc2C(c2ccccc2F)=NCC1CNC(=O)C(O)c1ccccc1` (centres undefined) yielded an IC50 of 0.6 µM.
`O=C1Nc2ccccc2C(c2ccccc2F)=NC1CNCC1N=C(c2ccccc2F)c2ccccc2NC1=O` (centres undefined) was tested, and the IC50 was 14 µM.
With `O=C(NCC1CNc2ccccc2C(c2ccccc2F)=N1)c1ccsc1` (centres undefined) the IC50 was 10 µM.
With `O=C(NCC1N=C(c2ccccc2F)c2ccccc2NC1=O)c1cc2ccccc2[nH]1` (centres undefined) the IC50 was 7 µM.
`O=C1Nc2ccccc2C(c2ccccc2F)=NC1CNc1cnc(Cl)cn1` (centres undefined) was tested, and the IC50 was 15 µM.
Work on `CCN(CC)CNCC1CN=C(c2ccccc2F)c2ccccc2N1C` (centres undefined) yielded an IC50 of over 100 µM.
`Cc1ccc(C(=O)NC[C@H]2CN=C(c3ccc(F)cc3)c3ccc(C)cc3N2C)cc1` gave an IC50 of 0.26 µM.
Work on `CN1c2ccccc2C(c2ccccc2F)=NCC1CNC(=O)c1ccsc1` (racemic) [TIFLUADOM] yielded an IC50 of 0.047 µM.
With `O=C(NCC1CNc2ccccc2C(c2ccccc2F)=N1)C(O)c1ccccc1` (single isomer, unassigned; form 1) the IC50 was 8 µM.
For `O=C(NCC1CNc2ccccc2C(c2ccccc2F)=N1)C(O)c1ccccc1` (single isomer, unassigned; form 2), the IC50 was over 100 µM.
